From ChEMBL document CHEMBL1123796, “New antitumor agents containing the anthracene nucleus” (1987)

Key:
Format in all cases: functional
L1210 [1] = test: Effect on RNA synthesis was determined by incorporation of radioligand into L1210 murine leukemia at a concentration of 1 ug/mL. (*: >1 log cell kill); conditions: Mus musculus
L1210 [2] = test: Effect on protein synthesis was determined by incorporation of radioligand into L1210 murine leukemia at a concentration of 10 ug/mL (*: >1 log cell kill); conditions: Mus musculus
L1210 [3] = test: Effect on protein synthesis was determined by incorporation of radioligand into L1210 murine leukemia at a concentration of 1 ug/mL. (*: >1 log cell kill); conditions: Mus musculus
Mus musculus [4] = test: Tested for skin toxicity in BALB/c mice at a significant dose of 0.75 mg/kg administered intraintradermally and involved concentric circular areas of induration.
Mus musculus [5] = test: Tested for skin toxicity in BALB/c mice at a significant dose of 2.00 mg/kg administered intraintradermally and involved concentric circular areas of erythema
Mus musculus [6] = test: Tested for skin toxicity in BALB/c mice at a significant dose of 2.5 mg/kg administered intraintradermally and involved concentric circular areas of erythema
Mus musculus [7] = test: Tested for percent average weekly weight change in mice at a significant dose of 100 mg/kg administered intraperitoneally in mice after 5 days of treatment; conditions: route intraperitoneal

## CN(C)CCNCc1c2ccccc2c(CNCCN(C)C)c2ccccc12
L1210 [1]
  inhibition at 1 µg/mL: 6.9%
L1210 [2]
  inhibition at 10 µg/mL: 87.3%
L1210 [3]
  inhibition at 1 µg/mL: 31.2%
Mus musculus [4]
  Extent of skin lesions: 1.7 cm**2
Mus musculus [5]
  Extent of skin lesions: 3.1 cm**2
Mus musculus [6]
  Extent of skin lesions: 5 cm**2
Mus musculus [7]
  Average weekly weight change: -15%
